Measured values from patent US11026958B2, “Substituted 6-membered aryl or heteroaryl allosteric modulators of nicotinic acetylcholine receptors” (Merck Sharp & Dohme Corp., priority 2016, dated 2021).
Like-named read-outs stand apart in the source and are kept apart here.

Target: human α7 nAChR (Homo sapiens (Human), UniProt P36544)
Experiment: Automated patch-clamp electrophysiology functional assay (Assay A), IonFlux HT
Type: cell-based
Conditions: HEK cell line stably expressing human RIC-3 and human α7, whole-cell population patch, 40 μM acetylcholine
Protocol: The α7 nAChR positive allosteric modulator (PAM) activity of the present compounds may be tested using assays known in the art. The α7 nAChR PAMs described herein have activities in an automated patch-clamp electrophysiology functional assay as described in the examples. The assay was performed using the IonFlux HT in a whole-cell, population patch configuration. See Golden et al. Assay Drug Dev. Technol. (2011) 9:608-619. The compounds were assessed for their ability to modulate the function of the human α7 nAChR stably expressed in a HEK cell line both in the presence, and in the absence of the natural α7 agonist acetylcholine. By performing a series of such measurements at different concentrations, the effective concentration of the α7 nAChR PAMs (EC50) was determined. See Spencer et al. Assay Drug Dev. Technol. (2012) 10:313-324.
Automated patch-clamp electrophysiology was performed using the IonFlux HT (Fluxion Biosciences Inc., San Francisco, Calif.) in the whole-cell, population patch configuration. Test compounds were assessed for their ability to modulate the function of the α7 nicotinic acetylcholine receptor both in the presence, and in the absence of the natural α7 agonist acetylcholine. A HEK cell line stably expressing both human RIC-3 and human α7 (PrecisION hnAChR α7/RIC-3, Eurofins Pharma, St. Charles, Mo.) was cultured in 175 cm^2 triple-layer tissue culture flasks to no more than 90% confluency in DMEM/F-12 growth media supplemented with 10% heat-inactivated fetal bovine serum, 1% non-essential amino acids, 0.625 μg/mL Puromycin, and 400 μg/mL Geneticin. Immediately prior to assay, cells were detached by first aspirating growth media, rinsing with Dulbecco's phosphate buffered saline, and then adding 10 mL of Accutase (Innovative Cell Technologies, San Diego, Calif.) to the flask and then incubating at 37° C. for 5 minutes. Detached cells were then recovered by the addition of 40 mL of CHO-serum-free media supplemented with 25 mM HEPES, and rocked gently in a 50 mL conical tube for 20 minutes prior to patch-clamp assay. After recovery, cells were pelleted by centrifugation at 1,000 RPM for 1 minute in a compact bench top centrifuge; recovery media was aspirated and cells were resuspended in external recording solution (150 mM NaCl, 5 mM KCl, 2 mM CaCl2, 1 mM MgCl2, 10 mM HEPES, 12 mM dextrose) to a density of 5.0×10^6 cells/mL. The cell suspension was added to the cell inlet wells on an IonFlux HT population patch plate which had previously been rinsed and primed with deionized H2O. Test compounds were serially diluted in DMSO and then resuspended to the final test concentration in external recording solution, with, or without 40 μM acetylcholine added to the external recording solution; test compounds were then transferred to the IonFlux HT population patch plate. Internal recording solution (110 mM TrisPO4, 28 mM TrisBase, 0.1 mM CaCl2, 2 mM MgCl2, 11 mM EGTA, 4 mM MgATP) was added to the internal recording solution inlet wells on the IonFlux HT patch plate previously loaded with cells and test compounds, and the plate loaded into the IonFlux HT instrument. A protocol was executed on the IonFlux HT to trap the cells, break into the cells, and establish the whole-cell recording configuration; cells were voltage-clamped at a holding potential of −60 mV for the duration of the experiment, all experiments were conducted at room temperature, and the IonFlux HT injection pressure was 8 psi for solution applications. Upon establishing the whole-cell configuration, external recording solution was perfused into the recording chambers for 120 seconds and then 40 μM acetylcholine was applied for 1 second and immediately washed off with external recording solution for 60 seconds. The 40 μM acetylcholine-evoked α7 current served as the current response to which subsequent test compound effects, in the presence, or in the absence of 40 μM acetylcholine would be quantified relative to. […]

Chain of human α7 nAChR (P36544 23-502): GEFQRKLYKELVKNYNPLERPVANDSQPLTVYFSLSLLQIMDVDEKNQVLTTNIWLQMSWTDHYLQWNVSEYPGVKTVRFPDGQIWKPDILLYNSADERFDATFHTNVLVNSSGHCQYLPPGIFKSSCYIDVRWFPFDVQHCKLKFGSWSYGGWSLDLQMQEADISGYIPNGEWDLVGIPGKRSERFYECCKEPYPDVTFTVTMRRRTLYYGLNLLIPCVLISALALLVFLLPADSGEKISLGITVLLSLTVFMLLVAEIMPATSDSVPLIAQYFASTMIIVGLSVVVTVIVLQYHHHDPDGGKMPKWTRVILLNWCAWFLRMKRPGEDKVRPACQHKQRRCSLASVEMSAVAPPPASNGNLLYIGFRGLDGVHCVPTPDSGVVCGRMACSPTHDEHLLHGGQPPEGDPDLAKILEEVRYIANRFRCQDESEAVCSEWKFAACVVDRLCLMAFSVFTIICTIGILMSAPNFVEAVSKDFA

Row | Compound | EC50 (read-out: α7 nAChR EC50) [µM] | EC50 (read-out: α7 nAChR Potency) [µM]
1 | 4-(trans-2-{2-[(2,2-Dimethylpropyl)amino]pyrimidin-4-yl}cyclopropyl)benzenesulfonamide [Example D5] | 1.8 | 0.5 to 5
2 | 4-(trans-2-{2-[(4-Fluorophenyl)amino]pyrimidin-4-yl}cyclopropyl)benzenesulfonamide [Example D8] | 3.8 | 0.5 to 5
3 | 4-(trans-2-{2-[Methyl(phenyl)amino]pyrimidin-4-yl}cyclopropyl)benzenesulfonamide [Example D6] | – | 0.5 to 5
4 | 4-{trans-2-[2-(Benzylamino)pyrimidin-4-yl]cyclopropyl}benzenesulfonamide [Example D3] | – | 0.5 to 5
5 | 4-{trans-2-[2-(Cyclopentylamino)pyrimidin-4-yl]cyclopropyl}benzenesulfonamide [Example D2] | 2.2 | 0.5 to 5
6 | 4-{trans-2-[2-(Pyrrolidin-1-yl)pyrimidin-4-yl]cyclopropyl}benzenesulfonamide [Example D7] | 0.9 | 0.5 to 5
7 | CC(C)c1ccc(C2CC2c2ccc(S(N)(=O)=O)cc2)nc1 (racemic) [Example A6, 4-{trans-2-[5-(Propan-2-yl)pyridin-2-yl]cyclopropyl}benzenesulfonamide] | 0.7 | 0.5 to 5
8 | CC(C)c1cccnc1C1CC1c1ccc(S(N)(=O)=O)cc1 (racemic) [Example A7, 4-{trans-2-[3-(Propan-2-yl)pyridin-2-yl]cyclopropyl}benzenesulfonamide] | 2.4 | 0.5 to 5
9 | NS(=O)(=O)c1ccc([C@@H]2C[C@H]2c2cccc(-n3cccn3)n2)cc1 (racemic) [Example A8, 4-{trans-2-[6-(1H-Pyrazol-1-yl)pyridin-2-yl]cyclopropyl}benzenesulfonamide] | 3.3 | 0.5 to 5
10 | NS(=O)(=O)c1ccc([C@@H]2C[C@H]2c2cccc(C3CCOCC3)n2)cc1 (racemic) [Example A9, 4-{trans-2-[6-(Tetrahydro-2H-pyran-4-yl)pyridin-2-yl]cyclopropyl}benzenesulfonamide] | 5.6 | 5 to 50
11 | CC(C)c1cccc(C2CC2c2ccc(S(N)(=O)=O)cc2)n1 (racemic) [Example A10, 4-{trans-2-[6-(Propan-2-yl)pyridin-2-yl]cyclopropyl}benzenesulfonamide] | – | 0.5 to 5
12 | CC(C)c1ccnc(C2CC2c2ccc(S(N)(=O)=O)cc2)c1 (racemic) [Example A11, 4-{trans-2-[4-(Propan-2-yl)pyridin-2-yl]cyclopropyl}benzenesulfonamide] | 0.46 | 0.1 to 0.5
13 | NS(=O)(=O)c1ccc([C@@H]2C[C@H]2c2cccc(C3CCCC3)n2)cc1 (racemic) [Example A12, 4-[trans-2-(6-Cyclopentylpyridin-2-yl)cyclopropyl]benzenesulfonamide] | – | 0.1 to 0.5
14 | NS(=O)(=O)c1ccc([C@@H]2C[C@H]2c2ccc(C3CCCC3)cn2)cc1 (racemic) [Example A13, 4-[trans-2-(5-Cyclopentylpyridin-2-yl)cyclopropyl]benzenesulfonamide] | 1.5 | 0.5 to 5
15 | CC(C)c1ccc(C2CC2c2ccc(S(N)(=O)=O)cc2)nn1 (racemic) [Example B2, 4-{trans-2-[6-(Propan-2-yl)pyridazin-3-yl]cyclopropyl}benzenesulfonamide] | 8.8 | 5 to 50
16 | CC(C)c1cncc(C2CC2c2ccc(S(N)(=O)=O)cc2)n1 (racemic) [Example B3, 4-{trans-2-[6-(Propan-2-yl)pyrazin-2-yl]cyclopropyl}benzenesulfonamide] | – | 0.5 to 5
17 | NS(=O)(=O)c1ccc(C2CC2c2cncc(N3CCCC3)c2)cc1 (racemic) [Example G2, 4-{trans-2-[5-(Pyrrolidin-1-yl)pyridin-3-yl]cyclopropyl}benzenesulfonamide] | 3.2 | 0.5 to 5

Next, values leading:

Row | EC50 (read-out: α7 nAChR EC50) [µM] | EC50 (read-out: α7 nAChR Potency) [µM] | Compound
18 | – | 0.5 to 5 | CC(C)c1cnc(C2CC2c2ccc(S(N)(=O)=O)cc2)nc1 (racemic) [Example C2, 4-{trans-2-[5-(Propan-2-yl)pyrimidin-2-yl]cyclopropyl}benzenesulfonamide]
19 | 1.8 | 0.5 to 5 | CC(C)c1ccnc(C2CC2c2ccc(S(N)(=O)=O)cc2)n1 (racemic) [Example C3, 4-{trans-2-[4-(Propan-2-yl)pyrimidin-2-yl]cyclopropyl}benzenesulfonamide]
20 | 2.9 | 0.5 to 5 | CN(C)c1nccc(C2CC2c2ccc(S(N)(=O)=O)cc2)n1 (racemic) [Example D1, 4-{trans-2-[2-(Dimethylamino)pyrimidin-4-yl]cyclopropyl}benzenesulfonamide]
21 | – | 0.5 to 5 | NS(=O)(=O)c1ccc(C2CC2c2ccnc(-c3ccccc3)n2)cc1 (racemic) [Example D9, 4-[trans-2-(2-Phenylpyrimidin-4-yl)cyclopropyl]benzenesulfonamide]
22 | 1.1 | 0.5 to 5 | NS(=O)(=O)c1ccc(C2CC2c2ccnc(NCCc3ccccc3)n2)cc1 (racemic) [Example D10, 4-(trans-2-{2-[(2-Phenylethyl)amino]pyrimidin-4-yl}cyclopropyl)benzenesulfonamide]
23 | 3.3 | 0.5 to 5 | NS(=O)(=O)c1ccc(C2CC2c2ccnc(Nc3ccccc3)n2)cc1 (racemic) [Example D11, 4-{trans-2-[2-(Phenylamino)pyrimidin-4-yl]cyclopropyl}benzenesulfonamide]
24 | – | 0.5 to 5 | CC(C)c1cc(C2CC2c2ccc(S(N)(=O)=O)cc2)ccn1 (racemic) [Example E1, 4-{trans-2-[2-(Propan-2-yl)pyridin-4-yl]cyclopropyl}benzenesulfonamide]
25 | 0.5 | 0.1 to 0.5 | NS(=O)(=O)c1ccc([C@@H]2C[C@H]2c2ccnc(C3CCC3)c2)cc1 (racemic) [Example E3, 4-[trans-2-(2-Cyclobutylpyridin-4-yl)cyclopropyl]benzenesulfonamide]
26 | 3.7 | 0.5 to 5 | NS(=O)(=O)c1ccc([C@@H]2C[C@H]2c2ccc(-n3ccnc3)cc2)cc1 (racemic) [Example F1, 4-{trans-2-[4-(1H-Imidazol-1-yl)phenyl]cyclopropyl}benzenesulfonamide]
27 | 5.2 | 5 to 50 | NS(=O)(=O)c1ccc(C2CC2c2cccc(-n3cncn3)c2)cc1 (racemic) [Example F2, 4-{trans-2-[3-(1H-1,2,4-Triazol-1-yl)phenyl]cyclopropyl}benzenesulfonamide]
28 | – | 0.5 to 5 | CC(C)c1ccc(C2CC2c2ccc(S(N)(=O)=O)cc2)cn1 (racemic) [Example G1, 4{-trans-2-[6-(Propan-2-yl)pyridin-3-yl]cyclopropyl}benzenesulfonamide]
29 | 0.87 | 0.5 to 5 | NS(=O)(=O)c1ccc([C@@H]2C[C@H]2c2ccc(-n3cccn3)nc2)cc1 (racemic) [Example G3, 4-{trans-2-[6-(1H-Pyrazol-1-yl)pyridin-3-yl]cyclopropyl}benzenesulfonamide]
30 | 1 | 0.5 to 5 | CC(C)Oc1ccc(C2CC2c2ccc(S(N)(=O)=O)cc2)cn1 (racemic) [Example G4, 4-{trans-2-[6-(Propan-2-yloxy)pyridin-3-yl]cyclopropyl}benzenesulfonamide]
31 | 3.4 | 0.5 to 5 | CC(C)(C#N)c1ccc([C@@H]2C[C@H]2c2ccc(S(N)(=O)=O)cc2)cn1 (racemic) [Example G5, 4-{trans-2-[6-(2-Cyanopropan-2-yl)pyridin-3-yl]cyclopropyl}benzenesulfonamide]
